Values of other authors, collected in patent publication US20230017920A1, “SHELF-STABLE HYPOCHLOROUS ACID” (priority 2019, published 2023).

Test system: individual bacterial cells
Settings: various studies, H Park et al., Int J Food Microbiol 91 (2004) 13-18

Q: With `OCl` [HOCl, hypochlorous acid] as the molecule, how does the “time to kill individual bacterial cells” value read?
A: within seconds
